Columns and labels:
[1] = tested on: glucose metabolic function of liver; test: Effect on glucose metabolism, blood sugar (mice); assay type: in vivo; conditions: 250 mg/kg oral pre-treatment, glucose 4.0 g/kg oral after 6 h
Method: Methods: The test compounds dissolved in olive oil and administered orally at the dose of 250 mg/kg to the mice. After 6 hours, 4.0 g/kg of glucose was orally administered. The same amount of glucose was given to the control animals. 0.02 ml of blood was taken from caudal vein of the mice at 30, 60, 90 and 120 min. after glucose administration. Blood sugar was measured by the procedure of SomogyiNelson. Number of animals used was 5 to 6 mice for each treatment.

[2] = tested on: alcohol metabolic function of liver; test: Effect on concentration of ethylalcohol in the blood (mice); assay type: in vivo; conditions: 250 mg/kg oral pre-treatment, ethylalcohol 1,000 mg/kg oral after 6 h
Method: The test compounds are dissolved or suspended in olive oil and administered orally at the dose of 250 mg/kg to the mice. After 6 hours, 1,000 mg/kg of ethylalcohol was given orally. Blood was taken in a capillary from caudal vein at the time indicated in the results. The plasma was obtained by centrifugation. The concentration of ethylalcohol in the plasma was measured by FID type gas liquid chromatography. Five mice were used for each group.

[3] = tested on: CCl4-induced hepatotoxicity; test: Protection against CCl4-induced hepatotoxicity (mice); assay type: in vivo, mice (four-week-old male, dd strain); conditions: 250 mg/kg oral, average of 5 to 6 mice; for Liver damage index: CCl4 0.05 ml/kg oral after 6 h, 24 h after CCl4, scale 0 Normal, 2 Slightly recognized, 4 Clearly observable damage, 6 Heavy damage, CCl4 alone 5.2, control 0; for p-GPT: plasma, 24 h after CCl4 0.05 ml/kg oral, values over 1,000 regarded as 1,000, CCl4 alone >1,000, control 35
Description: Carbon tetrachloride (CCl4) administration induces centrilobular necrosis of the liver associated with loss of diphosphopyridine nucleotide, hepatic glycogen, coenzyme A and increase in neutral fat. Release of several enzymes from the hepatocytes, and increase of enzyme activities in the plasma are recognized as the result of the damage of the liver. A suitable means for evaluating the degree of damage induced by CCl4 or the degree of protection afforded by drugs is to study the plasma glutamic-pyruvic transaminase(p-GPT) activity.
Methods: The test compounds were dissolved or suspended in olive oil and administered orally at the dose of 250 mg/kg to the mice (Four-week-old male mice-dd strain). After 6 hours, CCl4 was administered orally (0.05 ml/kg as olive oil solution). Animals were killed 24 hours after CCl4 administration, and the liver was grossly observed. The plasma was obtained by centrifugation. Activities of p-GPT were determined by the method of Reitman and Frankels and expressed in Karmen units. Score for liver damage index was as follows:
Each figure indicates average of 5 to 6 mice. Values of p-GPT over 1,000 Karmen unit regarded as 1,000 for calculation of average for convenience.

[4] = tested on: thioacetamide-induced hepatotoxicity; test: Therapeutic effect against thioacetamide-induced hepatotoxicity, BSP test (rats); assay type: in vivo, rats (Sprague Dawley strain)
Method: In the tests of this Example, TAA was repeatedly administered to animals to prepare test animals suffering from somewhat chronic liver damages, and then the present compounds were administered thereto to know whether or not the compounds were effective against chronic hepatitis.
The degree of the liver damage and the therapeutic effects of the compounds were evaluated according to BSP test. The BSP test is a method in which BSP (sulfobromophthalein sodium), a dye known to be quickly metabolized in and excreted from the liver, is intravenously injected into animals and, after a definite period of time, the blood is taken out to measure the amount of BSP remaining in the plasma. In case the animals are suffering from the liver damage, the dye will remain, according to the degree of the damage, at the stage where a major portion of BSP is metabolized and excreted in the case of normal animals. Five groups of rats (Sprague Dawley strain) were treated as follows:
Group A: The rats were orally administered with 100 mg/kg of thioacetamide,at 3 days intervals for 36 days (12 times of the administration), then were submitted for 10 days to a normal diet.
Group B: The rats were orally administered with 100 mg/kg of thioacetamide at 3 days intervals for 36 days (12 times of the administration), then were submitted for 10 days to the normal diet + 0.2% of compound 4.
Group C: The rats were orally administered with 100 mg/kg of thioacetamide at 3 days intervals for 36 days (12 times of the administration) then were submitted for 10 days to the normal diet + 0.2% of compound 2.
Group D: The rats were orally administered with 100 mg/kg of thioacetamide at 3 days intervals for 36 days((12 times of the administration) then were submitted for 10 days to the normal diet + 0.2% of anethol trithion.
Group E: The rats were submitted to the normal diet as the control.
Five rate were sacrificed from each group at appropriate intervals for BSP (sulfobromophthalein) test, the results of which were shown as amounts (mg) of BSP remaining in 1 dl of plasma.

[5] = Acute oral toxicity (LD50) to male mice; conditions: mouse, in vivo
Method: For example the LD50 values of the compounds 4, 11 and 17 in Table 1 are more than 5,000 mg/kg. Further, these compounds have no detrimental effects on test animals administered therewith, so far as the doses thereof are within an ordinary administration range.

[6] = 2 days of normal diet + 0.2% compound after 12 TAA administrations, TAA only 12.7±3.7, normal 0.4±0.1
[7] = 5 days of normal diet + 0.2% compound after 12 TAA administrations, TAA only 8.7±1.9
[8] = 10 days of normal diet + 0.2% compound after 12 TAA administrations, TAA only 1.4±0.4, normal 0.6±0.1

Structure (SMILES)	Blood Sugar ([1]; 0 min, control 145 ± 11.8)	Blood Sugar ([1]; 30 min, control 311 ± 21.9)	Blood Sugar ([1]; 60 min, control 290 ± 14.6)	Blood Sugar ([1]; 90 min, control 263 ± 13.1)	Blood Sugar ([1]; 120 min, control 251 ± 13.5)	Concentration of Ethylalcohol in Plasma ([2]; 0 min, control 27 ± 17)	Concentration of Ethylalcohol in Plasma ([2]; 5 min, control 875 ± 203)	Concentration of Ethylalcohol in Plasma ([2]; 15 min, control 810 ± 191)	Concentration of Ethylalcohol in Plasma ([2]; 30 min, control 690 ± 214)	Concentration of Ethylalcohol in Plasma ([2]; 60 min, control 167 ± 76)	Liver damage index [3]	p-GPT [3]	BSP remaining in plasma [4, 6]	BSP remaining in plasma [4, 7]	BSP remaining in plasma [4, 8]	LD50 [5]
CCOC(=O)C(C(=O)OCC)=C1SCS1 [Compound 2]	142 ± 22.8 mg/dL	258 ± 17.5 mg/dL	229 ± 18.7 mg/dL	183 ± 18.1 mg/dL	150 ± 20.4 mg/dL	11 ± 4 ppm.	714 ± 167 ppm.	655 ± 102 ppm.	426 ± 101 ppm.	15 ± 10 ppm.	0.3	29 Karmen units	7.5 ± 1.2 mg/dL	3.8 ± 0.4 mg/dL	0.7 ± 0.1 mg/dL	–
CC(C)OC(=O)C(C(=O)OC(C)C)=C1SCCCS1 [Compound 11, Diisopropyl 1,3-dithian-2-ylidene malonate]	–	–	–	–	–	–	–	–	–	–	2.3	215 Karmen units	–	–	–	> 5000 mg/kg
CC(C)OC(=O)C(C(=O)OC(C)C)=C1SCS1 [Compound 4, Diisopropyl 1,3-dithietan-2-ylidene malonate]	168 ± 20.4 mg/dL	280 ± 10.8 mg/dL	215 ± 20.1 mg/dL	164 ± 16.5 mg/dL	165 ± 15.3 mg/dL	10 ± 3 ppm.	695 ± 122 ppm.	637 ± 113 ppm.	410 ± 77 ppm.	15 ± 8 ppm.	0.0	20 Karmen units	7.1 ± 0.8 mg/dL	3.2 ± 0.6 mg/dL	0.6 ± 0.2 mg/dL	> 5000 mg/kg
CCCOC(=O)C(C(=O)OCCC)=C1SCCCS1 [Compound 10, Di-n-propyl 1,3-dithian-2-ylidene malonate]	148 ± 14.7 mg/dL	267 ± 21.2 mg/dL	222 ± 18.3 mg/dL	162 ± 14.4 mg/dL	148 ± 18.8 mg/dL	13 ± 4 ppm.	753 ± 78 ppm.	698 ± 95 ppm.	451 ± 114 ppm.	12 ± 11 ppm.	2.2	50 Karmen units	–	–	–	–
CC(C)OC(=O)C(C(=O)OC(C)C)=C1SCCCCS1 [Compound 17, diisopropyl 1,3-dithiepan-2-ylidene malonate]	–	–	–	–	–	–	–	–	–	–	3.6	688 Karmen units	–	–	–	> 5000 mg/kg
COc1ccc(-c2cc(=S)ss2)cc1 [Anetol trithion, anethol trithion, reference compound]	–	–	–	–	–	–	–	–	–	–	1.6	38 Karmen units	9.7 ± 4.1 mg/dL	7.3 ± 3.4 mg/dL	0.9 ± 0.1 mg/dL	–

Reference: patent US4022907A, “Pharmaceutical compositions containing 1,3-dithiacycloalkylidene malonates” (Nihon Nohyaku Co. Ltd., priority 1975, dated 1977)
